# Columns and labels:
# [1] = tested on: late watergrass; assay: Test Example 1: herbicidal activity, application before weed generation under submerged conditions (Table 16, symbol A); assay type: in vivo, late watergrass (Echinochloa oryzicola); conditions: amount of applied herbicide 320 g/ha
# How it was run: (§1)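 Alluvial soil was flooded to 4 cm depth, weed seeds were sown mixed and 2.5-leaf rice seedlings were transplanted. On sowing day, the compound's emulsion, diluted in water to a set dose, was applied to the water surface. Plants grew at 25–30 °C and were scored 0–5 after three weeks.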
# [2] = tested on: Japanese bulrush; assay: Test Example 1: herbicidal activity, application before weed generation under submerged conditions (Table 16, symbol B); assay type: in vivo, Japanese bulrush (Schoenoplectus juncoides); conditions: amount of applied herbicide 320 g/ha
# How it was run: as §1
# [3] = tested on: oval-leafed pondweed; assay: Test Example 1: herbicidal activity, application before weed generation under submerged conditions (Table 16, symbol C); assay type: in vivo, oval-leafed pondweed (Monochoria vaginalis); conditions: amount of applied herbicide 320 g/ha
# How it was run: as §1
# [4] = tested on: barnyard grass; assay: Test Example 3: herbicidal effect by foliage application, Wagner pot (Table 18, symbol H); assay type: in vivo, barnyard grass (Echinochloa crus-galli); conditions: amount of applied herbicide 320 g/ha
# How it was run: (§2)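 Plants were sown in alluvial soil held under 0.1–0.5 cm standing water and grown 14 days in a greenhouse at 25–30 °C. An emulsifiable formulation, water-diluted to the set dose, was then sprayed onto the foliage, and effects were scored three weeks later using previously defined criteria.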
# [5] = tested on: Chinese sprangletop; assay: Test Example 3: herbicidal effect by foliage application, Wagner pot (Table 18, symbol D); assay type: in vivo, chinese sprangletop (Leptochloa chinensis); conditions: amount of applied herbicide 320 g/ha
# How it was run: as §2
# [6] = tested on: rice flat sedge; assay: Test Example 3: herbicidal effect by foliage application, Wagner pot (Table 18, symbol E); assay type: in vivo, rice flat sedge (Cyperus iria); conditions: amount of applied herbicide 320 g/ha
# How it was run: as §2
# [7] = tested on: southern crabgrass; assay: Test Example 4: herbicidal effect by soil treatment (Table 19, symbol F); assay type: in vivo, southern crabgrass (Digitaria ciliaris); conditions: amount of applied herbicide 320 g/ha
# How it was run: (§3)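 Soil-surface application: an emulsion agent diluted with water to the predetermined dose is sprayed uniformly over seeds lying under roughly 1.5 cm of sterilized diluvial soil. Boxes stay in a greenhouse at 25° C. to 30° C. Three weeks later, each species is graded on previously defined criteria.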
# [8] = tested on: green foxtail; assay: Test Example 4: herbicidal effect by soil treatment (Table 19, symbol G); assay type: in vivo, green foxtail (Setaria viridis); conditions: amount of applied herbicide 320 g/ha
# How it was run: as §3
# [9] = tested on: barnyard grass; assay: Test Example 4: herbicidal effect by soil treatment (Table 19, symbol H); assay type: in vivo, barnyard grass (Echinochloa crus-galli); conditions: amount of applied herbicide 320 g/ha
# How it was run: as §3
# [10] = tested on: wild oat; assay: Test Example 4: herbicidal effect by soil treatment (Table 19, symbol I); assay type: in vivo, wild oat (Avena fatua); conditions: amount of applied herbicide 320 g/ha
# How it was run: as §3
# [11] = tested on: blackgrass; assay: Test Example 4: herbicidal effect by soil treatment (Table 19, symbol J); assay type: in vivo, blackgrass (Alopecurus myosuroides); conditions: amount of applied herbicide 320 g/ha
# How it was run: as §3
# [12] = tested on: Italian ryegrass; assay: Test Example 4: herbicidal effect by soil treatment (Table 19, symbol K); assay type: in vivo, Italian ryegrass (Lolium multiflorum); conditions: amount of applied herbicide 320 g/ha
# How it was run: as §3
# [13] = tested on: windgrass; assay: Test Example 4: herbicidal effect by soil treatment (Table 19, symbol L); assay type: in vivo, windgrass (Apera spica-venti); conditions: amount of applied herbicide 320 g/ha
# How it was run: as §3
# [14] = tested on: velvetleaf; assay: Test Example 4: herbicidal effect by soil treatment (Table 19, symbol M); assay type: in vivo, velvetleaf (Abutilon theophrasti); conditions: amount of applied herbicide 320 g/ha
# How it was run: as §3
# [15] = tested on: redroot pigweed; assay: Test Example 4: herbicidal effect by soil treatment (Table 19, symbol N); assay type: in vivo, redroot pigweed (Amaranthus retroflexus); conditions: amount of applied herbicide 320 g/ha
# How it was run: as §3
# [16] = tested on: lambsquarters; assay: Test Example 4: herbicidal effect by soil treatment (Table 19, symbol O); assay type: in vivo, lambsquarters (Chenopodium album); conditions: amount of applied herbicide 320 g/ha
# How it was run: as §3
# [17] = tested on: chickweed; assay: Test Example 4: herbicidal effect by soil treatment (Table 19, symbol P); assay type: in vivo, common chickweed (Stellaria media); conditions: amount of applied herbicide 320 g/ha
# How it was run: as §3
# [18] = tested on: persian speedwell; assay: Test Example 4: herbicidal effect by soil treatment (Table 19, symbol R); assay type: in vivo, Persian speedwell (Veronica persica); conditions: amount of applied herbicide 320 g/ha
# How it was run: as §3
# [19] = tested on: southern crabgrass; assay: Test Example 5: herbicidal effect by foliage application, plastic box (Table 20, symbol F); assay type: in vivo, southern crabgrass (Digitaria ciliaris); conditions: foliage application, AAH 320 g/ha, evaluated three weeks after application
# How it was run: (§4)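 Sow seeds spot-wise in sterilized diluvial soil; cover with ~1.5 cm soil. Grow 14 days in greenhouse, 25° C. to 30° C. Spray foliage with emulsion diluted to predetermined amount. Rate effect after 3 weeks.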
# [20] = tested on: green foxtail; assay: Test Example 5: herbicidal effect by foliage application, plastic box (Table 20, symbol G); assay type: in vivo, green foxtail (Setaria viridis); conditions: foliage application, AAH 320 g/ha, evaluated three weeks after application
# How it was run: as §4
# [21] = tested on: barnyard grass; assay: Test Example 5: herbicidal effect by foliage application, plastic box (Table 20, symbol H); assay type: in vivo, barnyard grass (Echinochloa crus-galli); conditions: foliage application, AAH 320 g/ha, evaluated three weeks after application
# How it was run: as §4
# [22] = tested on: wild oat; assay: Test Example 5: herbicidal effect by foliage application, plastic box (Table 20, symbol I); assay type: in vivo, wild oat (Avena fatua); conditions: foliage application, AAH 320 g/ha, evaluated three weeks after application
# How it was run: as §4
# [23] = tested on: blackgrass; assay: Test Example 5: herbicidal effect by foliage application, plastic box (Table 20, symbol J); assay type: in vivo, blackgrass (Alopecurus myosuroides); conditions: foliage application, AAH 320 g/ha, evaluated three weeks after application
# How it was run: as §4
# [24] = tested on: Italian ryegrass; assay: Test Example 5: herbicidal effect by foliage application, plastic box (Table 20, symbol K); assay type: in vivo, Italian ryegrass (Lolium multiflorum); conditions: foliage application, AAH 320 g/ha, evaluated three weeks after application
# How it was run: as §4
# [25] = tested on: windgrass; assay: Test Example 5: herbicidal effect by foliage application, plastic box (Table 20, symbol L); assay type: in vivo, windgrass (Apera spica-venti); conditions: foliage application, AAH 320 g/ha, evaluated three weeks after application
# How it was run: as §4
# [26] = tested on: velvetleaf; assay: Test Example 5: herbicidal effect by foliage application, plastic box (Table 20, symbol M); assay type: in vivo, velvetleaf (Abutilon theophrasti); conditions: foliage application, AAH 320 g/ha, evaluated three weeks after application
# How it was run: as §4
# [27] = tested on: redroot pigweed; assay: Test Example 5: herbicidal effect by foliage application, plastic box (Table 20, symbol N); assay type: in vivo, redroot pigweed (Amaranthus retroflexus); conditions: foliage application, AAH 320 g/ha, evaluated three weeks after application
# How it was run: as §4
# [28] = tested on: lambsquarters; assay: Test Example 5: herbicidal effect by foliage application, plastic box (Table 20, symbol O); assay type: in vivo, lambsquarters (Chenopodium album); conditions: foliage application, AAH 320 g/ha, evaluated three weeks after application
# How it was run: as §4
# [29] = tested on: chickweed; assay: Test Example 5: herbicidal effect by foliage application, plastic box (Table 20, symbol P); assay type: in vivo, common chickweed (Stellaria media); conditions: foliage application, AAH 320 g/ha, evaluated three weeks after application
# How it was run: as §4
# [30] = tested on: persian speedwell; assay: Test Example 5: herbicidal effect by foliage application, plastic box (Table 20, symbol R); assay type: in vivo, Persian speedwell (Veronica persica); conditions: foliage application, AAH 320 g/ha, evaluated three weeks after application
# How it was run: as §4
SMILES,"Herbicidal effect, A: late watergrass [1]","Herbicidal effect, B: Japanese bulrush [2]","Herbicidal effect, C: oval-leafed pondweed [3]",herbicidal effect on H: barnyard grass [4],herbicidal effect on D: Chinese sprangletop [5],herbicidal effect on E: rice flat sedge [6],"herbicidal effect, F: southern crabgrass [7]","herbicidal effect, G: green foxtail [8]","herbicidal effect, H: barnyard grass [9]","herbicidal effect, I: wild oat [10]","herbicidal effect, J: blackgrass [11]","herbicidal effect, K: Italian ryegrass [12]","herbicidal effect, L: windgrass [13]","herbicidal effect, M: velvetleaf [14]","herbicidal effect, N: redroot pigweed [15]","herbicidal effect, O: lambsquarters [16]","herbicidal effect, P: chickweed [17]","herbicidal effect, R: persian speedwell [18]","F: southern crabgrass, herbicidal effect (criteria 0-5) [19]","G: green foxtail, herbicidal effect (criteria 0-5) [20]",further results
CCCC(=O)Oc1c(C)nn(C)c(=O)c1-c1c(-c2cnccc2C(F)(F)F)sc2ccc(F)cc12 [2-388],5 (Herbicidal rate of 90% or more (almost completely withered)),0 (Herbicidal rate of 5% or less (almost no effect)),0 (Herbicidal rate of 5% or less (almost no effect)),5 (Herbicidal rate of 90% or more (almost completely withered)),3 (Herbicidal rate of 40% or more and less than 70%),3 (Herbicidal rate of 40% or more and less than 70%),0 (Herbicidal rate of 5% or less (almost no effect)),0 (Herbicidal rate of 5% or less (almost no effect)),3 (Herbicidal rate of 40% or more and less than 70%),0 (Herbicidal rate of 5% or less (almost no effect)),0 (Herbicidal rate of 5% or less (almost no effect)),0 (Herbicidal rate of 5% or less (almost no effect)),0 (Herbicidal rate of 5% or less (almost no effect)),0 (Herbicidal rate of 5% or less (almost no effect)),1 (Herbicidal rate of 5% or more and less than 20%),2 (Herbicidal rate of 20% or more and less than 40%),5 (Herbicidal rate of 90% or more (almost completely withered)),5 (Herbicidal rate of 90% or more (almost completely withered)),1 (Herbicidal rate of 5% or more and less than 20%),3 (Herbicidal rate of 40% or more and less than 70%),"H: barnyard grass, herbicidal effect (criteria 0-5) [21]: 4 (Herbicidal rate of 70% or more and less than 90%); I: wild oat, herbicidal effect (criteria 0-5) [22]: 3 (Herbicidal rate of 40% or more and less than 70%); J: blackgrass, herbicidal effect (criteria 0-5) [23]: 1 (Herbicidal rate of 5% or more and less than 20%); K: Italian ryegrass, herbicidal effect (criteria 0-5) [24]: 3 (Herbicidal rate of 40% or more and less than 70%); L: windgrass, herbicidal effect (criteria 0-5) [25]: 4 (Herbicidal rate of 70% or more and less than 90%); M: velvetleaf, herbicidal effect (criteria 0-5) [26]: 5 (Herbicidal rate of 90% or more (almost completely withered)); N: redroot pigweed, herbicidal effect (criteria 0-5) [27]: 4 (Herbicidal rate of 70% or more and less than 90%); O: lambsquarters, herbicidal effect (criteria 0-5) [28]: 4 (Herbicidal rate of 70% or more and less than 90%); P: chickweed, herbicidal effect (criteria 0-5) [29]: 5 (Herbicidal rate of 90% or more (almost completely withered)); R: persian speedwell, herbicidal effect (criteria 0-5) [30]: 5 (Herbicidal rate of 90% or more (almost completely withered))"
CSc1ccncc1-c1sc2ccc(F)cc2c1-c1c(O)c(C)nn(C)c1=O [2-389],3 (Herbicidal rate of 40% or more and less than 70%),0 (Herbicidal rate of 5% or less (almost no effect)),0 (Herbicidal rate of 5% or less (almost no effect)),5 (Herbicidal rate of 90% or more (almost completely withered)),3 (Herbicidal rate of 40% or more and less than 70%),5 (Herbicidal rate of 90% or more (almost completely withered)),1 (Herbicidal rate of 5% or more and less than 20%),3 (Herbicidal rate of 40% or more and less than 70%),3 (Herbicidal rate of 40% or more and less than 70%),1 (Herbicidal rate of 5% or more and less than 20%),0 (Herbicidal rate of 5% or less (almost no effect)),3 (Herbicidal rate of 40% or more and less than 70%),1 (Herbicidal rate of 5% or more and less than 20%),3 (Herbicidal rate of 40% or more and less than 70%),5 (Herbicidal rate of 90% or more (almost completely withered)),5 (Herbicidal rate of 90% or more (almost completely withered)),4 (Herbicidal rate of 70% or more and less than 90%),5 (Herbicidal rate of 90% or more (almost completely withered)),5 (Herbicidal rate of 90% or more (almost completely withered)),5 (Herbicidal rate of 90% or more (almost completely withered)),"H: barnyard grass, herbicidal effect (criteria 0-5) [21]: 5 (Herbicidal rate of 90% or more (almost completely withered)); I: wild oat, herbicidal effect (criteria 0-5) [22]: 4 (Herbicidal rate of 70% or more and less than 90%); J: blackgrass, herbicidal effect (criteria 0-5) [23]: 3 (Herbicidal rate of 40% or more and less than 70%); K: Italian ryegrass, herbicidal effect (criteria 0-5) [24]: 4 (Herbicidal rate of 70% or more and less than 90%); L: windgrass, herbicidal effect (criteria 0-5) [25]: 4 (Herbicidal rate of 70% or more and less than 90%); M: velvetleaf, herbicidal effect (criteria 0-5) [26]: 5 (Herbicidal rate of 90% or more (almost completely withered)); N: redroot pigweed, herbicidal effect (criteria 0-5) [27]: 5 (Herbicidal rate of 90% or more (almost completely withered)); O: lambsquarters, herbicidal effect (criteria 0-5) [28]: 5 (Herbicidal rate of 90% or more (almost completely withered)); P: chickweed, herbicidal effect (criteria 0-5) [29]: 5 (Herbicidal rate of 90% or more (almost completely withered)); R: persian speedwell, herbicidal effect (criteria 0-5) [30]: 5 (Herbicidal rate of 90% or more (almost completely withered))"
